Columns and labels:
[1] = test system: newborn hippocampal neurons; assay: 30 day BrdU pulse-chase survival assay of newborn hippocampal neurons, dose response; format: in vivo, mouse (C57 Bl/6); settings: for increase in survival of newborn neurons: 5 mg/kg/day i.p. for 30 days; for neuroprotective efficacy (increase in survival of newborn neurons): 10 mg/kg/day i.p. for 30 days; for ceiling of efficacy (CoE), increase in survival: 20 or 40 mg/kg/day i.p. for 30 days
Procedure: FIG. 28. Neuroprotective efficacy of P7C3, P7C3A20 and Dimebon for newborn neurons in the adult hippocampus. Test compounds were evaluated by dose response assay for their ability to block normal apoptotic cell death of newborn neural precursor cells in the adult dentate gyrus. […] P7C3 is intermediate in both measures. 6 animals were tested per group. Dosing is expressed as total mg/day, and compounds were administered intraperitoneally in divided doses twice daily. Data are expressed as mean±SEM. Values for P7C3 and P7C3A20 were compared to those of vehicle (VEH), and values for Dimebon were compared to those of saline (SAL).
In order to more carefully compare the neuroprotective efficacy of these compounds in abetting hippocampal neurogenesis, we conducted dose-response studies in a 30 day BrdU pulse-chase survival assay (FIG. 28). Briefly, newborn cells were labeled with a single intraperitoneal (i.p.) injection of BrdU (150 mg/kg), followed by daily treatment with the three test compounds beginning the following day. After 30 days of compound administration, mice were transcardially perfused with 4% paraformaldehyde, brains were dissected, and immunohistochemical detection of BrdU followed by standard microscopic imaging and normalization for dentate gyrus volume was used to quantify the number of surviving cells.
Because both social activity and voluntary exercise enhance hippocampal neurogenesis, mice were individually housed without access to running wheels throughout the entire procedure, beginning one week prior to bromodeoxyuridine (BrdU, Sigma-Aldrich) labeling of newborn cells. Throughout the study, mice had ad libitum access to food and water. BrdU was injected intraperitoneally at 150 mg/kg i.p., and 24 hours later administration of test compounds or vehicle was initiated. P7C3 and P7C3A20 were dissolved in 5% dextrose (pH 7.0) with 2.5% DMSO and 10% Cremaphor EL (Sigma, C5135). Dimebon was dissolved in normal saline. Compounds were compared to their respective controls, and were tested at 2.5, 5, 10 and 20 mg/kg twice daily (i.p.) for 30 days. The injection site was alternated between right and left sides. Each group consisted of six 12-week-old adult male C57 Bl/6 mice. Animals were monitored daily for general health and weight loss. Cage changes were performed per routine scheduling. After 30 days of compound administration, mice were sacrificed by transcardial perfusion with 4% paraformaldehyde at pH 7.4, and their brains were processed for immunohistochemical detection of incorporated BrdU in the dentate gyrus. Dissected brains were immersed in 4% paraformaldehyde overnight at 4 degrees Celsius, then cryoprotected in sucrose before being sectioned with a Leica SM2000R sliding microtome coronally into […] thick free-floating sections. Unmasking of BrdU antigen was achieved through incubating tissue sections for two hours in 50% formamide/2×SSC at 65 degrees Celsius, followed by five minute wash in 2×SSC and subsequent incubation for thirty minutes in 2M HCl at 37 degrees Celsius. Sections were processed for immunohistochemical staining with mouse monoclonal anti-BrdU (1:100, Roche). Diaminobenzidine was used as a chromagen, and tissue was counter-stained with hematoxylin to aid in visualization of the neuroanatomy. Images were analyzed with a Nikon Eclipse 90i motorized research microscope with Plan Apo lenses coupled with Metamorph Image Acquisition software (Nikon). Quantification of all staining was done blind to treatment group. The number of BrdU+ cells in the entire dentate gyrus was quantified by counting BrdU+ cells within the dentate gyrus in every fifth section throughout the entire hippocampus and then normalizing for dentate gyrus volume.

[2] = test system: G93A-SOD1 mutant mice; assay: Walking gait (pawprint analysis) in G93A-SOD1 mice, treatment from day 80; format: in vivo, mouse; settings: 20 mg/kg/day from day 80
Procedure: FIG. 36A and FIG. 36B. P7C3A20 preserves walking gait when administered at the time of disease onset to G93A-SOD1 mutant mice. […] Front and back stride were collected as a straight line from back paw print to the following paw print. Back-front distance was collected as a straight line from back paw print to the corresponding front paw print. 20 measurements (10 on each side) for each parameter were measured per mouse, and 20 mice per group were evaluated at 90 and 118 day time points. All measurements were conducted blind to treatment group, and the student's t test was used for statistical comparison of a treatment group to its matched vehicle group. FIG. 36B—At 90 days, there were no differences between any groups in back stride, front stride and back-front distance. […] Back stride and front stride were preserved to near-normal levels in P7C3A20 treated mice on day 118. By day 132, P7C3 and Dimebon treated mice were too sick to participate in the task. At this time point, P7C3A20 treated mice continued to show normalized back stride and front stride levels.
Analysis of walking gait offers a second means of assessing motor limb strength and coordination in rodent models of ALS. We conducted this analysis in the same mice used for the accelerating rotarod task, at three time points: 90, 118 and 132 days. Briefly, the front paws of each test mouse were dipped in orange tempera paint, and the back paws in blue tempera paint. […] Key parameters of the pawprints were then manually measured, as described in Methods. […]
Five measurements were taken: front and back stride, front and back width, and front to back distance, as described in Current Protocols for Neuroscience. […] Width from paw print was measured by drawing a line at a 90 degree angle from the line connecting the stride previous and the paw being analyzed. The distance was recorded as length of line from paw to the stride line opposite the paw print. […]
Pawprints were recorded at 90, 118 and 132 days of age. […]

SMILES: Cc1ccc2c(c1)c1c(n2CCc2ccc(C)nc2)CCN(C)C1 [Dimebon, 2,3,4,5-Tetrahydro-2,8-dimethyl-5-(2-(6-methyl-3-pyridyl)ethyl)-1H-pyrido(4,3-b)indole, reference compound]
- increase in survival of newborn neurons [1]: neither P7C3 nor Dimebon exhibited any effect
- neuroprotective efficacy (increase in survival of newborn neurons) [1]: 15%
- ceiling of efficacy (CoE), increase in survival [1]: ≈ 30%
- walking gait (back stride, front stride, back-front distance) [2]: none of these parameters in the walking gait analysis at 20 mg/kg/day were significantly improved

SMILES: COc1cccc(NCC(F)Cn2c3ccc(Br)cc3c3cc(Br)ccc32)c1 (stereo not drawn) [Example P7C3A20, N-(3-(3,6-dibromo-9H-carbazol-9-yl)-2-fluoropropyl)-3-methoxyaniline]
- increase in survival of newborn neurons [1]: ~100%
- neuroprotective efficacy (increase in survival of newborn neurons) [1]: about 175%
- ceiling of efficacy (CoE), increase in survival [1]: ≈ 230%
- walking gait (back stride, front stride, back-front distance) [2]: helps preserve walking gait

SMILES: OC(CNc1ccccc1)Cn1c2ccc(Br)cc2c2cc(Br)ccc21 (stereo not drawn) [Example P7C3]
- increase in survival of newborn neurons [1]: neither P7C3 nor Dimebon exhibited any effect
- neuroprotective efficacy (increase in survival of newborn neurons) [1]: 65%
- ceiling of efficacy (CoE), increase in survival [1]: ≈ 130%
- walking gait (back stride, front stride, back-front distance) [2]: none of these parameters in the walking gait analysis at 20 mg/kg/day were significantly improved

From patent US10183011B2, “Anti-depression compounds” (Board of Regents of the University of Texas System, priority 2009, dated 2019)
